What was measured:
[1] = system: pAKT S473; test: Western blot of AKT phosphorylation in serum-starved HepG2 cells; assay type: cell-based, human; conditions: 10 min
Experimental: Cell extracts were used to separate proteins by SDS-PAGE, and Western blot analysis was performed using specific antibodies against phosphorylated AKT and phosphorylated GSK3beta. […] Extracts were analyzed by Western blot using specific antibodies against pAKT S473 (left panel) or pGSK3beta (right panel).
To further investigate the dose dependence of AKT phosphorylation, we treated HepG2 cells with increasing concentrations of 6EUDCA. Serum-starved HepG2 cell extracts were prepared after incubation with different concentrations of 6EUDCA (DMSO/0 M, 1 μM, 3 μM, 10 µM or 30 µM) for 10 min. Extracts were analyzed by Western blot using specific antibodies against pAKT S473 (left panel) or pGSK3beta (right panel).

[2] = system: FXR target gene SHP; test: qPCR analysis of the FXR target gene SHP in HepG2 cells; assay type: cell-based, human; conditions: serum starved HepG2, overnight; 100 μM UDCA, 10 μM 6EUDCA; normalized with 36b4
[3] = target: T1, GST-hFXR (Homo sapiens, UniProt Q96RI1); conditions: UDCA 1000, 300 or 100 μM; 6EUDCA 100, 30 or 10 μM; 15 or 25 min
T1 sequence (Q96RI1 1-486): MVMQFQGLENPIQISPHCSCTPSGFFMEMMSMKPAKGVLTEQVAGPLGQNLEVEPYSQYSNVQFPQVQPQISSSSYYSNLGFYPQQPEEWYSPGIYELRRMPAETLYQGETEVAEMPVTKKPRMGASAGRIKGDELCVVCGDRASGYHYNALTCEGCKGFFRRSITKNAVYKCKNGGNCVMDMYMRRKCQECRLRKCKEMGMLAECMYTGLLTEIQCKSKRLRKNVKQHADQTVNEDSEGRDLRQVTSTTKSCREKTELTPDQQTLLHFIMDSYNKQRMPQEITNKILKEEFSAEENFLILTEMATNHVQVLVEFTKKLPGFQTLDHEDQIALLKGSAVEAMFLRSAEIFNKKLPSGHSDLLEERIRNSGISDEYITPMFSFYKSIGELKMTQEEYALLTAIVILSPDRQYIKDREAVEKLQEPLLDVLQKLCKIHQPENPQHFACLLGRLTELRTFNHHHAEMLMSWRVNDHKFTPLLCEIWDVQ

[4] = system: phosphorylated AKT; test: Western blot of AKT phosphorylation in mouse primary hepatocytes from wild-type or fxr-/- mice; conditions: serum-starved mouse primary hepatocytes, 10 min

| Compound | dose dependence of AKT phosphorylation ([1]; HepG2, 1 μM, 3 μM, 10 μM or 30 μM) | induction of AKT phosphorylation ([1]; serum starved HepG2 cells) | induction of the FXR target gene SHP (qPCR) [2] | binding to FXR in TR-FRET assay (reduction in fluorescence signal of DY246) [3] | phosphorylation of AKT in fxr-/- hepatocytes [4] | phosphorylation of AKT in wild-type hepatocytes [4] |
| --- | --- | --- | --- | --- | --- | --- |
| CC[C@H]1[C@H](O)[C@@H]2[C@H](CC[C@]3(C)[C@@H]([C@H](C)CCC(=O)O)CC[C@@H]23)[C@@]2(C)CC[C@@H](O)C[C@@H]12 [6EUDCA, 3α, 7β-Dihydroxy-6α-ethyl-5β-cholan-24-oic acid] | dose dependent | effective in inducing AKT phosphorylation | neither UDCA nor 6EUDCA could induce the FXR target gene SHP | binds FXR with higher affinity | not in fxr−/− hepatocytes | induced phosphorylation of AKT in wild-type hepatocytes |
| C[C@H](CCC(=O)O)[C@H]1CC[C@H]2[C@@H]3[C@@H](O)C[C@@H]4C[C@H](O)CC[C@]4(C)[C@H]3CC[C@]12C [UDCA, Ursodeoxycholic acid, reference compound] |  |  |  |  | not in fxr−/− hepatocytes | induced phosphorylation of AKT in wild-type hepatocytes |

Reference: patent US10246481B2, “Bile acid derivatives and methods for synthesis and use” (City of Hope, priority 2016, dated 2019)
